Data set [1] is described as follows: Oxygen radical absorbance capacity with fluorescein (ORAC-FL) assay. How it is done: Oxidative stress is another crucial event in AD pathogenesis. In order to determine antioxidant activities of our synthetic compounds, the oxygen radical absorbance capacity method with fluorescein (ORAC-FL) assay was performed. with Trolox (6-hydroxy-2,5,7,8-tetramethylchroman-2-carboxylic acid) as the standard, and their antioxidant activity was expressed as Trolox equivalents.
The antioxidant activities of the compounds in vitro were determined by the oxygen radical absorbance capacity fluorescein (ORAC-FL) assay. The tested compounds and (±)-6-hydroxy-2,5,7,8-tetramethylchroman-2-carboxylic acid (Trolox) were dissolved in DMSO at a concentration of 10 mM, and then diluted with 75 mM potassium phosphate buffer (pH 7.4) to 50 μM and 10 μM for use. The fluorescein (FL) stock solution (3.4 mM) was diluted with the same buffer to 136 nM. All the assays were conducted with 75 mM potassium phosphate bufffer (pH 7.4), and the final reaction mixture was 200 μL.
The mixture of compounds (or buffer) (20 μL) and fluorescein (FL, 120 μL) were incubated for 15 min at 37 °C in a black 96-well plate. Then 2,2′-azobis-(amidino-propane)-dihydrochloride (AAPH) solution (60 μL, 40 mM) was rapidly added to the reaction mixture. The fluorescence was recorded every 5 min for 240 min at 485 nm (excitation wavelength) and 535 nm (emission wavelength) (Varioskan Flash Multimode Reader, Thermo Scientific, Waltham, MA, USA), and each sample was prepared and measured for three times independently. […] The net AUC for a sample was calculated using the expression net AUC = AUCsample − AUCblank, The ORAC-FL value of each sample was calculated using the equation of net AUCsample/(AUCTrolox – AUCblank), which was expressed as Trolox equivalents.

The target in a further data set is T1, Aβ1–42 (Homo sapiens, UniProt P05067).
T1 construct: Aβ1–42 (Sigma, St. Louis, MO, USA; counterion, NaOH) stock solution was prepared by dissolving Aβ1–42 peptide in ammonium hydroxide; purchased Sigma
The experiment in a line: Inhibition of self-induced Aβ1–42 aggregation (ThT fluorescence assay). It counts as biochemical. How it is done: The formation and aggregation of Aβ1–42 in the brain leads to neurotoxicity in AD. In order to evaluate the activity of our new synthetic compounds to inhibit Aβ1–42 self-induced aggregation, the thioflavin (ThT) fluorescence assay was performed.
All ThT experiments were performed according to our previously published methods. Aβ1–42 (Sigma, St. Louis, MO, USA; counterion, NaOH) stock solution was prepared by dissolving Aβ1–42 peptide in ammonium hydroxide (1% v/v), and diluting with 20 mM phosphate buffer (pH 7.4) to 100 μM. The tested compounds were firstly dissolved in DMSO at a concentration of 10 mM, and then diluted with 20 mM phosphate buffer (pH 7.4) to 40 μM.
For the inhibition of self-induced Aβ1–42 aggregation. Aβ1–42 peptide (2 μL, 50 μM, final concentration) with the tested compound (2 μL, 20 μM, final concentration) or 20 mM phosphate buffer (2 μL) was incubated in 20 mM phosphate buffer (pH 7.4) at 37 °C for 72 h. After incubation, the samples were diluted to a final volume of 36 μL with 50 mM glycine-NaOH buffer (pH 8.5) containing 5 μM Thioflavin T. Fluorescence signal was measured (excitation wavelength 450 nm, emission wavelength 485 nm, and slit widths set to 5 nm) on a monochromator-based multimode microplate reader ([…] M1000, TECAN, Hombrechtikon, Switzerland), adapted for 384-well microtiter plates. […] Each compound was examined in triplicate.

Data set [2] can be described thus: Cytotoxicity on SH-SY5Y cells (MTT). The format is cell-based, human. The settings on record: human, SH-SY5Y neuroblastoma cells; MTT, 24 h; mean ± SEM of three measurements. How it is done:
The cytotoxicity of our synthesized compounds was examined in human neuroblastoma SH-SY5Y cells. The cell viability was determined by using methyl thiazolyl tetrazolium (MTT) colorimetry, the cells were treated with different concentrations of compounds (0–100 μM). The result is shown in the Supplementary Materials (Table S1).
The cytotoxicities of the compounds were evaluated using the MTT assay. SH-SY5Y cells were subcultured in 96-well plates at a seeding density of 1 × 10^4 cells per well. After 24 h, the medium was removed and treated with different concentrations of tested compounds for 24 h at 37 °C. The survival of cells was determined with MTT assay. Then 80 μL of medium and 20 μL of MTT (0.5 mg/mL, final concentration) were added to each well and incubated for another 4 h. After the removal of MTT, the formazan crystals were dissolved in DMSO. The amount of formazan was measured using a microculture plate reader at the wavelength of 570 nm. Each concentration was performed in triplicate.

Another data set relates to SH-SY5Y cells. The experiment in a line: Cellular ROS detection (DCFH-DA) in SH-SY5Y cells treated with t-BuOOH. Particulars: compound 2.5 μM; 0.1 mM t-BuOOH; compared with Trolox. The format is cell-based, human. The method, then: To further investigate their antioxidant activity in SH-SY5Y cells, cellular ROS detection assay based on dichlorofluorescein diacetate (DCFH-DA) was performed. with Trolox and N-acetyl-L-cysteine (NAC) as reference compounds.
SH-SY5Y cells were maintained in Dulbecco’s modified Eagle’s medium (DEME) and supplemented with 1 mM glutamine, 10% fetal calf serum, 100 U/mL penicillin, and 100 μg/mL streptomycin. The cultures were maintained at 37 °C in a humidified incubator containing 5% CO2 and were passaged twice weekly.
The antioxidant activity of the compounds in SH-SY5Y cells were tested with the fluorescent probe (2′,7′-dichlorofluorescein diacetate, DCFH-DA) as reported with some variation. SH-SY5Y cells were sub-cultured in 96-well plates at a seeding density of 1 × 10^4 cells per well for 24 h, then the medium was removed, the tested compounds (2.5 μM) was added and incubated for another 24 h at 37 °C. After that, the cells were washed with PBS and incubated with 5 μM DCFH-DA in PBS at 37 °C in 5% CO2 for 30 min. Then DCFH-DA was removed, the cells were washed three times and incubated with 0.1 mM t-BuOOH in PBS for 30 min. After the incubation, the cell fluorescence from each well was measured at 485 nm excitation and 535 nm emission with a monochromator based multimode microplate reader ([…] M1000).

The mark [3] stands for this setting: inhibitor 20 μM, Aβ1–42 50 μM, ThT, 37 °C, 72 h, mean ± SD.

T1 sequence (P05067 672-713): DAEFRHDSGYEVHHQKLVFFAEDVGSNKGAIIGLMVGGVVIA

For the molecule `CCN(CC)c1ccc(/C=C/c2cc(N3CCCCC3)c3ccccc3n2)cc1` [Compound 4b1, reference compound], the ORAC in data set [1] (compound 1 μM) is reported as 3.70 ± 0.11 μmol of Trolox equivalents/μmol of tested compounds; in data set [1] (compound 5 μM), 3.91 ± 0.11 μmol of Trolox equivalents/μmol of tested compounds. The molecule also showed an inhibition at 20 µM at Aβ1–42 (setting [3]) of 83.5 ± 1.4%.

For `CN(C)c1ccc(/C=C/c2cc(N3CCCCC3)c3ccccc3n2)cc1` [Compound 4b2, reference compound], the ORAC in data set [1] (compound 1 μM) was 2.91 ± 0.11 μmol of Trolox equivalents/μmol of tested compounds; in data set [1] (compound 5 μM) it was 3.12 ± 0.10 μmol of Trolox equivalents/μmol of tested compounds. This molecule also showed an inhibition at 20 µM against Aβ1–42 (setting [3]) of 81.2 ± 0.8%.

`CCN(CC)CCCNc1cc(/C=C/c2ccc(N(C)C)cc2)nc2ccccc12` [Compound 6a2, (E)-N^1-(2-(4-(Dimethylamino)styryl)quinolin-4-yl)-N^3,N^3-diethylpropane-1,3-diamine] showed a melting point of 168.5 to 170.1 °C. In data set [2], this molecule came in with an IC50 at 24 h of 187.5 ± 0.2 µM. In data set [1] (compound 1 μM), the ORAC is on record as 5.74 ± 0.09 μmol of Trolox equivalents/μmol of tested compounds. At Aβ1–42 (setting [3]), this molecule displayed an inhibition at 20 µM of 88.5 ± 1.5%.

Turning to `CCN(CC)CCCNc1cc(/C=C/c2c[nH]c3ccccc23)nc2ccccc12` [Compound 6a3, (E)-N^1-(2-(2-(1H-Indol-3-yl)vinyl)quinolin-4-yl)-N^3,N^3-diethylpropane-1,3-diamine], the melting point fell in the range of 194.3 to 195.1 °C. This molecule registered an IC50 at 24 h in data set [2] of 147.8 ± 0.3 µM. Besides, the ORAC in data set [1] (compound 1 μM) was 1.26 ± 0.06 μmol of Trolox equivalents/μmol of tested compounds. The ORAC in data set [1] (compound 5 μM) was 1.73 ±0.07 μmol of Trolox equivalents/μmol of tested compounds. At Aβ1–42 (setting [3]), the inhibition at 20 µM worked out at 84.3 ± 2.1%.

Molecule `CN(C)CCCNc1cc(/C=C/c2ccc(N(C)C)cc2)nc2ccccc12` [Compound 6b2, (E)-N^1-(2-(4-(Dimethylamino)styryl)quinolin-4-yl)-N^3,N^3-dimethylpropane-1,3-diamine] yielded a melting point of 151.2 to 153.3 °C. The IC50 at 24 h in data set [2] was 228 µM. In data set [1] (compound 1 μM), the ORAC is on record as 5.61 ± 0.09 μmol of Trolox equivalents/μmol of tested compounds. Moreover, the ORAC in data set [1] (compound 5 μM) was 5.88 ± 0.01 μmol of Trolox equivalents/μmol of tested compounds. Besides, at Aβ1–42 (ThT fluorescence method, mean ± SD of three experiments, read-out: IC50 against self-induced Aβ1–42 aggregation), the IC50 worked out at 6.1 ± 0.8 µM. The same molecule returned an inhibition at 20 µM against Aβ1–42 (setting [3]) of 92.1 ± 1.3%.

Molecule `CCN(CC)c1ccc(/C=C/c2cc(NCCN(C)C)c3ccccc3n2)cc1` [Compound 6c1, (E)-N^1-(2-(4-(Diethylamino)styryl)quinolin-4-yl)-N^2,N^2-dimethylethane-1,2-diamine] yielded a melting point of 145.2 to 147.1 °C. In data set [2], this molecule came in with an IC50 at 24 h of 154.3 ± 0.5 µM. Besides, the ORAC in data set [1] (compound 1 μM) is listed as 2.79 ± 0.04 μmol of Trolox equivalents/μmol of tested compounds. The ORAC in data set [1] (compound 5 μM) is recorded as 3.24 ± 0.10 μmol of Trolox equivalents/μmol of tested compounds. Moreover, the inhibition at 20 µM at Aβ1–42 (setting [3]) turned out to be 85.1 ± 1.4%.

`CN(C)CCNc1cc(/C=C/c2ccc(N(C)C)cc2)nc2ccccc12` [Compound 6c2, (E)-N^1-(2-(4-(Dimethylamino)styryl)quinolin-4-yl)-N^2,N^2-dimethylethane-1,2-diamine] gave a melting point of 148.9 to 149.6 °C. The molecule also registered an IC50 at 24 h in data set [2] of 127.5 ± 0.4 µM. In data set [1] (compound 1 μM), the ORAC is on record as 3.28 ± 0.09 μmol of Trolox equivalents/μmol of tested compounds. Moreover, the ORAC in data set [1] (compound 5 μM) is recorded as 3.53 ± 0.07 μmol of Trolox equivalents/μmol of tested compounds. The molecule further showed an inhibition at 20 µM on Aβ1–42 (setting [3]) of 83.9 ± 2.4%.

Molecule `CCCCNc1cc(/C=C/c2ccc(N(CC)CC)cc2)nc2ccccc12` [Compound 6d1, (E)-N-Butyl-2-(4-(diethylamino)styryl)quinolin-4-amine] came in with a melting point of 172.5 to 173.8 °C. The same molecule had an IC50 at 24 h in data set [2] of 119.3 ± 0.7 µM. For the same molecule, the ORAC in data set [1] (compound 1 μM) was 1.38 ± 0.02 μmol of Trolox equivalents/μmol of tested compounds. Also, the ORAC in data set [1] (compound 5 μM) is listed as 1.56 ± 0.05 μmol of Trolox equivalents/μmol of tested compounds. The molecule further had an inhibition at 20 µM against Aβ1–42 (setting [3]) of 80.5 ± 1.4%.

`CCCCNc1cc(/C=C/c2ccc(N(C)C)cc2)nc2ccccc12` [Compound 6d2, (E)-N-Butyl-2-(4-(dimethylamino)styryl)quinolin-4-amine] showed a melting point of 165.3 to 167.1 °C. Further, in data set [2], the IC50 at 24 h stood at 112.4 ± 0.6 µM. The ORAC in data set [1] (compound 1 μM) is 0.75 ± 0.06 μmol of Trolox equivalents/μmol of tested compounds. Moreover, in data set [1] (compound 5 μM), the ORAC was 0.95 ± 0.09 μmol of Trolox equivalents/μmol of tested compounds. On Aβ1–42 (setting [3]), this molecule returned an inhibition at 20 µM of 79.2 ± 2.3%.

The molecule `CCN(CC)c1ccc(/C=C/c2cc(NCC(C)C)c3ccccc3n2)cc1` [Compound 6e1, (E)-2-(4-(Diethylamino)styryl)-N-isobutylquinolin-4-amine] registered a melting point of 170.2 to 171.7 °C. The same molecule came in with an IC50 at 24 h in data set [2] of 143.6 ± 0.7 µM. Moreover, in data set [1] (compound 1 μM), the ORAC is 1.71 ± 0.05 μmol of Trolox equivalents/μmol of tested compounds. Moreover, the ORAC in data set [1] (compound 5 μM) was 1.92 ± 0.11 μmol of Trolox equivalents/μmol of tested compounds. In addition, on Aβ1–42 (setting [3]), testing at 20 µM gave an inhibition of 77.9 ± 1.3%.

For `CC(C)CNc1cc(/C=C/c2ccc(N(C)C)cc2)nc2ccccc12` [Compound 6e2, (E)-2-(4-(Dimethylamino)styryl)-N-isobutylquinolin-4-amine], the melting point lay in the range of 171.8 to 173.2 °C. In data set [2], this molecule came in with an IC50 at 24 h of 141.9 ± 0.5 µM. Besides, the ORAC in data set [1] (compound 1 μM) is 1.68 ± 0.06 μmol of Trolox equivalents/μmol of tested compounds. The ORAC in data set [1] (compound 5 μM) was 1.78 ± 0.05 μmol of Trolox equivalents/μmol of tested compounds. The molecule further gave an inhibition at 20 µM against Aβ1–42 (setting [3]) of 77.5 ± 1.5%.

As for `COc1cc(/C=C/C(=O)CC(=O)/C=C/c2ccc(O)c(OC)c2)ccc1O` [Cur, curcumin, reference compound], the “Aβ1–42 Aggregation Inhibition (%)” value on Aβ1–42 (setting [3]) was determined as 49.3 ± 1.2%.

As for `CC(=O)N[C@@H](CS)C(=O)O` [NAC, N-acetyl-L-cysteine, reference compound], the “Antioxidant activity in SH-SY5Y cells (ROS generation, DCFH-DA fluorescence)” value with SH-SY5Y cells was “didn’t remove ROS generation”.

`Cc1c(C)c2c(c(C)c1O)CCC(C)(C(=O)O)O2` (stereo not drawn) [Trolox, 6-hydroxy-2,5,7,8-tetramethylchroman-2-carboxylic acid, reference compound]: the “Antioxidant activity in SH-SY5Y cells (ROS generation, DCFH-DA fluorescence)” value in the data set with SH-SY5Y cells is given as “decrease the intensity of fluorescence”.

The record behind these values is paper PMC6321145 (Molecules, 2018).
